Experimental data from US5780653A, “Nitrophenyl, 10-deacetylated substituted taxol derivatives as dual functional cytotoxic/radiosensitizers” (Vivorx Pharmaceuticals, Inc., priority 1995, dated 1998).

Assays:
[1] = tested on: breast adenocarcinoma cell line MCF-7; experiment: In vitro cytotoxicity of paclitaxel derivatives (macroscopic colony formation); type: cell-based
Method: Taxol derivatives were assayed for their cytotoxic activities on tumor cell lines in vitro. The breast adenocarcinoma cell line MCF-7 was chosen as a model for the cytotoxicity assay. The cell line was maintained in RPMI 1640 medium supplemented with 10% fetal bovine serum. For the cell survival experiments, a number of 100 mm petri dishes were plated with 5×10^5 cells. Exponentially growing cells were exposed to paclitaxel or paclitaxel derivatives at various concentrations 24 hours later. After exposure to paclitaxel and derivatives for various times, the cells were rinsed, trypsinized and washed with medium. The cells were resuspended as single cell suspensions, counted with a particle counter, plated and incubated for macroscopic colony formation. Following a one to two week incubation, the colonies were fixed with methanol/acetic acid, stained with crystal violet and colonies with more than 50 cells counted. […] The survival was reported as the fraction of cells surviving after exposure to paclitaxel or derivatives thereof. As an example, the cytotoxicity of the derivative synthesized in Example 9, i.e., 3'-Desphenyl-3'-(4-nitrophenyl)-N-debenzoyl-N-(t-butoxycarbonyl)-10-deacetyltaxol, is reported herein.

tubulin = experiment: In vitro microtubule assembly of paclitaxel derivatives (turbidity, absorbance at 350 nm); type: biochemical; details: for absorbance (at 350 nm), tubulin polymerization at 10° C. / absorbance (at 350 nm), tubulin polymerization at 37° C.: 10 μM tubulin, 10 μM taxol or derivative; for absorbance (at 350 nm), tubulin polymerization at 10° C.: pH 6.8, 10° C.; for absorbance (at 350 nm), tubulin polymerization at 37° C.: pH 6.8, 37° C.
Excerpt: Paclitaxel inhibits cell replication in the mitotic phase of the cell cycle by promoting polymerization and stabilization of microtubules. Microtubules are polymers of tubulin in dynamic equilibrium with tubulin heterodimers that are composed of alpha and beta protein subunits. Unlike other antimicrotubule agents, such as the vinca alkaloids (that induce microtubule disassembly), paclitaxel shifts the equilibrium towards microtubule assembly. Paclitaxel-induced microtubules are excessively stable, thereby inhibiting the dynamic reorganization of the microtubule network. The cytotoxic properties of paclitaxel are caused by its unique disruptive effects on microtubules. Thus the activity of taxol or taxol analogs and derivatives may be assessed in vitro by their ability to polymerize tubulin into microtubules (Chaudhary et al. Journal of the American Chemical Society 116:4097-4098 (1994). The polymerization of tubulin is accompanied by a concomitant increase in solution turbidity associated with the formation of microtubules. This increase in turbidity can be assayed spectrophotometrically.
Thus, 10 μM tubulin was dissolved in 0.1M MES buffer containing 100 μM GTP and 0.5 mM MgCl2 with a final pH of 6.8. 10 μM tubulin was added to the buffer. 10 μM of taxol (or taxol derivatives) was added to the buffer at 0° C. and the absorbance of the sample measured at 350 nm as the sample temperature increased rapidly to 37° C. with the aid of a circulating water bath connected to the sample chamber of the spectrophotometer. The maximum absorbance of the sample was measured and compared to that of taxol as a control to determine any change in activity of the paclitaxel derivatives.

[2] = compared with paclitaxel; cited from earlier work
microtubule = details: compared with paclitaxel; cited from earlier work
central nervous system = details: large-scale clinical trials; cited from earlier work
cultured mammalian cells = details: cited from earlier work
rodent tumors = details: some rodent tumors; cited from earlier work
[3] = tested on: cervical carcinoma cell lines; details: cited from earlier work
[4] = tested on: grade III human astrocytoma cell line, G18; details: paclitaxel pretreatment and gamma irradiation; cited from earlier work
[5] = tested on: HL-60 human leukemic cell line; details: cited from earlier work
[6] = intravenous infusion every 2-3 weeks, patients; cited from earlier work
[7] = tested on: three human ovarian cancer cell lines; details: cited from earlier work
[8] = tested on: human breast and lung cell lines; details: cited from earlier work
[9] = cited from earlier work

In the case of “3'-Desphenyl-3'-(4-nitrophenyl)-N-debenzoyl-N-(isopropoxycarbonyl)-10-deacetyltaxol [Example 9]”, the “surviving fraction of MCF-7 cells” value ([1]; 10 nM, 24 hours) is reported as 2×10^-3 and the “increase in cytotoxicity over unmodified taxol” value ([1]; MCF-7, 10 nM, 24 hours) is reported as 30 fold.
For CC(=O)O[C@@]12CO[C@@H]1C[C@H](O)[C@@]1(C)C(=O)[C@H](O)C3=C(C)[C@@H](OC(=O)C(O)C(NC(=O)OC(C)(C)C)c4ccc([N+](=O)[O-])o4)C[C@@](O)([C@@H](OC(=O)c4ccccc4)[C@H]21)C3(C)C (some centres unmarked) [Example 6], the “absorbance (at 350 nm), tubulin polymerization at 10° C.” value (tubulin) was 0.37, the “absorbance (at 350 nm), tubulin polymerization at 37° C.” value (tubulin) was 0.71 and the “tubulin polymerization activity relative to taxol (ratio of absorbances)” value (tubulin; 37° C.) was 2.4 times that of taxol. For the same compound, the “activity in tubulin assembly compared with unmodified taxol” value (tubulin; both at low temperature and at physiological temperatures) was “substantially more active in tubulin assembly than unmodified taxol”.
In the case of CC(=O)O[C@@]12CO[C@@H]1C[C@H](O)[C@@]1(C)C(=O)[C@H](O)C3=C(C)[C@@H](OC(=O)[C@H](O)[C@@H](NC(=O)OC(C)(C)C)c4ccccc4)C[C@@](O)([C@@H](OC(=O)c4ccccc4)[C@H]21)C3(C)C [docetaxel], the “cytotoxicity” value [2] is listed as “more active than paclitaxel” and the “microtubule assembly activity” value (microtubule) is listed as “more active than paclitaxel”.
For COCC(O)Cn1ccnc1[N+](=O)[O-] (centres unmarked) [misonidazole], the “toxicity to the central nervous system” value (central nervous system) is listed as “toxic to the central nervous system”, the “hypoxic-cell sensitization, cultured mammalian cells” value (cultured mammalian cells) is listed as “excellent hypoxic-cell sensitizer” and the “hypoxic-cell sensitization, rodent tumors” value (rodent tumors) is listed as “excellent hypoxic-cell sensitizer”.
In the case of CC(=O)O[C@H]1C(=O)[C@@]2(C)[C@H]([C@H](OC(=O)c3ccccc3)[C@]3(O)C[C@H](OC(=O)[C@H](O)[C@@H](NC(=O)c4ccccc4)c4ccccc4)C(C)=C1C3(C)C)[C@]1(OC(C)=O)CO[C@@H]1C[C@@H]2O [paclitaxel], the “enhancement in radiosensitization, cervical carcinoma” value [3] is given as “have not observed an enhancement in radiosensitization”, the viability at 0.01 µM ([1]; Homo sapiens, MCF7, 24 h, read-out: surviving fraction of MCF-7 cells) is given as 6% and the “enhancement of radiosensitivity, G18” value [4] is given as “significant enhancement of radiosensitivity”. The “radiosensitization, HL-60” value [5] was “radiosensitization”, the serum half-life [6] was “up to 19 h” and the “absorbance (at 350 nm), tubulin polymerization at 10° C.” value (tubulin) was 0.0. For the same compound, the “absorbance (at 350 nm), tubulin polymerization at 37° C.” value (tubulin) was 0.295, the “polymerization of tubulin at 10° C.” value (tubulin; taxol (10 μM), 10° C.) was “would not polymerize tubulin” and the “polymerization of tubulin at 37° C.” value (tubulin; taxol (10 μM), 37° C.) was “would promote polymerization”. For the same compound, the “radiosensitization, human ovarian cancer cell lines” value [7] was “radiosensitization”, the “enhancement in radiosensitization, human breast and lung” value [8] was “have not observed an enhancement in radiosensitization” and the “in vivo radiopotentiation” value [9] was “potent in vivo radiopotentiating agent”.
